Laboratory results published in PMC6420026, “TLR9-mediated dendritic cell activation uncovers mammalian ganglioside species with specific ceramide backbones that activate invariant natural killer T cells” (PLoS Biology, 2019).
Read-outs that look alike come from different tables or passages of the source.

Target: T1, mouse CD1d (mCD1d) (Mus musculus, UniProt P11609)
T1 construct: gene Cd1d1
T1 sequence (P11609 22-305 limits assumed): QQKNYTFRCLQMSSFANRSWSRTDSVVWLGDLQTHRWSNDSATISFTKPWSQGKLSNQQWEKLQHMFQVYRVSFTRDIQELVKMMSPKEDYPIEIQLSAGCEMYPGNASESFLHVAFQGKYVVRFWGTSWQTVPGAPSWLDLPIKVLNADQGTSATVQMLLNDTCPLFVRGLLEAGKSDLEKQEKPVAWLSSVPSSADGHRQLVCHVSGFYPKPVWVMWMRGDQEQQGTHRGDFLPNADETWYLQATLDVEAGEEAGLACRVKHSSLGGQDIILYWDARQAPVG
T1 sequence (P01887 21-119 partner): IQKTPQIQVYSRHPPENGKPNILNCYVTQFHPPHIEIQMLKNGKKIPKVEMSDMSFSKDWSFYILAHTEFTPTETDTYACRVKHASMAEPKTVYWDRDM
Assay: microscale thermophoresis
Format: binding

**Q.** How did the Kd turn out when CCCCCCCC/C=C\CCCCCCCCCCCCCC(=O)N[C@@H](CO[C@@H]1O[C@H](CO)[C@@H](O[C@@H]2O[C@H](CO)[C@H](O)[C@H](O[C@]3(C(=O)O)C[C@H](O)[C@@H](NC(C)=O)[C@H]([C@H](O)[C@H](O)CO)O3)[C@H]2O)[C@H](O)[C@H]1O)[C@H](O)/C=C/CCCCCCCCCCCCC [C24:1 GM3] was run?
**A.** 102 ± 2.3 µM

**Q.** How did the Kd (NT-647-labelled mCD1d 125 nM, PBS 25 mM, 0.05% Tyloxapol, up to 5% DMSO, 1:1 fit, labelled protein) turn out when CCCCCCCC/C=C\CCCCCCCCCCCCCC(=O)N[C@@H](CO[C@@H]1O[C@H](CO)[C@@H](O[C@@H]2O[C@H](CO)[C@H](O)[C@H](O[C@]3(C(=O)O)C[C@H](O)[C@@H](NC(C)=O)[C@H]([C@H](O)[C@@H](CO)O[C@]4(C(=O)O)C[C@H](O)[C@@H](NC(C)=O)[C@H]([C@H](O)[C@H](O)CO)O4)O3)[C@H]2O)[C@H](O)[C@H]1O)[C@H](O)/C=C/CCCCCCCCCCCCC [C24:1 GD3] was run?
**A.** 69.1 ± 1.5 µM

**Q.** For CCCCCCCC/C=C\CCCCCCCCCCCCCC(=O)N[C@@H](CO[C@@H]1O[C@H](CO)[C@@H](O)[C@H](O)[C@H]1O)[C@H](O)/C=C/CCCCCCCCCCCCC [C24:1 β-GlcCer], which Kd is on record?
**A.** 2540 µM
